Work on `Nc1nc(Cl)cc(Nc2ccccc2)n1` [Compound 1, 6-Chloro-4-(N-phenyl)-2,4-pyrimidinediamine] yielded a melting point of 175 to 177 °C. `COc1ccccc1Nc1cc(Cl)nc(N)n1` [Compound 2, 6-Chloro-4-(N-(2-methoxy)phenyl)-2,4-pyrimidinediamine] showed a melting point of 240 to 242 °C. Compound `COc1cccc(Nc2cc(Cl)nc(N)n2)c1` [Compound 3, 6-Chloro-4-(N-(3-methoxy)phenyl)-2,4-pyrimidinediamine] has a melting point of 178 to 180 °C. `COc1ccc(Nc2cc(Cl)nc(N)n2)cc1` [Compound 4, 6-Chloro-4-(N-(4-methoxy)phenyl)-2,4-pyrimidinediamine] showed a melting point of 222 to 223 °C. Compound `COc1ccc(OC)c(Nc2cc(Cl)nc(N)n2)c1` [Compound 5, 6-Chloro-4-(N-(2,5-dimethoxy)phenyl)-2,4-pyrimidinediamine] has a melting point of 182 to 184 °C. For `COc1cc(Nc2cc(Cl)nc(N)n2)ccc1C` [Compound 6, 6-Chloro-4-(N-(3-methoxy-4-methyl)phenyl)-2,4-pyrimidinediamine], the melting point was 245 to 247 °C. In the case of `CCCCOc1ccc(Nc2cc(Cl)nc(N)n2)cc1` [Compound 8, 6-Chloro-4-(N-(4-n-butoxy)phenyl)-2,4-pyrimidinediamine], the melting point is reported as 180 to 182 °C. `CCCCCCCCOc1ccc(Nc2cc(Cl)nc(N)n2)cc1` [Compound 9] showed a melting point of 185 to 187 °C. Work on `Nc1nc(Cl)cc(Nc2ccc(Br)cc2)n1` [Compound 10, 6-Chloro-4-(N-(4-bromo)phenyl)-2,4-pyrimidinediamine] yielded a melting point of 190 to 192 °C. In the case of `Nc1nc(Cl)cc(Nc2cccc(Br)c2)n1` [Compound 11, 6-Chloro-4-(N-(3-bromo)phenyl)-2,4-pyrimidinediamine], the melting point is reported as 180 to 182 °C. Work on `Nc1nc(Cl)cc(Nc2ccc(Cl)cc2)n1` [Compound 12, 6-Chloro-4-(N-(4-chloro)phenyl)-2,4-pyrimidinediamine] yielded a melting point of 182 to 184 °C. For `Nc1nc(Cl)cc(Nc2cccc(Cl)c2)n1` [Compound 13, 6-Chloro-4-(N-(3-chloro)phenyl)-2,4-pyrimidinediamine], the melting point was 177 to 179 °C. In the case of `Nc1nc(Cl)cc(Nc2ccc(I)cc2)n1` [Compound 14, 6-Chloro-4-(N-(4-iodo)phenyl)-2,4-pyrimidinediamine], the melting point is reported as 250 to 252 °C. In the case of `CC(C)c1ccccc1Nc1cc(Cl)nc(N)n1` [Compound 16, 6-Chloro-4-(N-(2-isopropyl)phenyl)-2,4-pyrimidinediamine], the melting point is reported as 170 to 172 °C. With `Cc1cccc(Nc2cc(Cl)nc(N)n2)c1C` [Compound 17, 6-Chloro-4-(N-(2,3-dimethyl)phenyl)-2,4-pyrimidinediamine] the melting point was 176 to 178 °C. `Cc1ccc(C)c(Nc2cc(Cl)nc(N)n2)c1` [Compound 18, 6-Chloro-4-(N-(2,5-dimethyl)phenyl)-2,4-pyrimidinediamine] gave a melting point of 173 to 175 °C. Work on `Cc1ccc(Cl)cc1Nc1cc(Cl)nc(N)n1` [Compound 19, 6-Chloro-4-(N-(5-chloro-2-methyl)phenyl)-2,4-pyrimidinediamine] yielded a melting point of 175 to 177 °C. `Cc1ccc(Nc2cc(Cl)nc(N)n2)c(C)c1` [Compound 20, 6-Chloro-4-(N-(2,4-dimethyl)phenyl)-2,4-pyrimidinediamine] showed a melting point of 178 to 180 °C. Compound `Cc1ccc(Nc2cc(Cl)nc(N)n2)cc1C` [Compound 21, 6-Chloro-4-(N-(3,4-dimethyl)phenyl)-2,4-pyrimidinediamine] has a melting point of 179 to 180 °C. In the case of `CCc1ccc(Nc2cc(Cl)nc(N)n2)cc1` [Compound 22, 6-Chloro-4-(N-(4-ethyl)phenyl)-2,4-pyrimidinediamine], the melting point is reported as 172 to 174 °C. For `CCCCc1ccc(Nc2cc(Cl)nc(N)n2)cc1` [Compound 23, 6-Chloro-4-(N-(4-n-butyl)phenyl)-2,4-pyrimidinediamine], the melting point was 175 to 177 °C. With `Nc1nc(Cl)cc(N2CCNCC2)n1` [Compound 24, 4-Chloro-6-(1-piperazinyl)-2-pyrimidinylamine] the melting point was > 300 °C. In the case of `Nc1nc(Cl)cc(N2CCN(c3ccccc3)CC2)n1` [Compound 25, 6-Chloro-6-(4-phenyl-1-piprazinyl)-2-pyrimidine amine], the melting point is reported as 200 to 202 °C. For `Nc1nc(Cl)cc(NCc2cccnc2)n1` [Compound 26, 6-Chloro-4-(N-(3-pyridinyl)methyl)-2,4-pyrimidinediamine], the melting point was 210 to 212 °C. With `Nc1nc(Cl)cc(NCc2ccco2)n1` [Compound 27, 6-Chloro-4-(N-(furan-2-yl)methyl)-2,4-pyrimidinediamine] the melting point was 140 to 142 °C.

From paper PMC9693052, “Synthesis of 2-Aminopyrimidine Derivatives and Their Evaluation as β-Glucuronidase Inhibitors: In Vitro and In Silico Studies” (Molecules, 2022)
